Values after ≈ are worked out from the molar mass of the structure shown.
Key:
A. fumigatus = A. fumigatus MIC at 100% growth inhibition (CLSI M38-A2); type: cell-based, Aspergillus fumigatus; details: 100% growth inhibition, range tested 8-0.0078 μg/mL, values given as ranges; for MIC: Aspergillus fumigatus, read-out: Aspergillus fumigatus MIC
Method: A. fumigatus MICs were determined at 100% growth inhibition following CLSI guidelines at a concentration range of 8-0.0078 μg/mL (CLSI M38-A2).

C. albicans (ATCC 90028) = assay: Minimum inhibitory concentration, in vitro broth microdilution assay (CLSI M27-A2); type: cell-based, Candida albicans; details: ATCC 90028, about 50% growth reduction, 2 days at 36° C., range tested 8-0.0078 μg/mL, values given as ranges; for MIC: Candida albicans, ATCC90028, 48 h, read-out: Candida albicans MIC
Procedure, shortened: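 CLSI M27-A2 broth microdilution: 11 two-fold DMSO dilutions into RPMI-1640+MOPS with 1×10^3–1×10^4 CFU/mL, 2 percent DMSO final. Incubated 2 days at 36° C; MIC from visual growth scoring, duplicates.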

SMILES | MIC (A. fumigatus) [µg/mL] | MIC (C. albicans (ATCC 90028)) [µg/mL] | Aspergillus fumigatus MIC (A. fumigatus) [µg/mL] | Candida albicans MIC (C. albicans (ATCC 90028)) [µg/mL]
CN(C)CCn1ncn(-c2ccc(N3CCN(c4ccc(-c5ccc(C(F)(F)[C@](O)(Cn6cnnn6)c6ccc(F)cc6F)nc5)cc4)CC3)cc2)c1=O [Example 61, (R)-4-(4-(4-(4-(6-(2-(2,4-difluorophenyl)-1,1-difluoro-2-hydroxy-3-(1H-tetrazol-1-yl)propyl)pyridin-3-yl)phenyl)piperazin-1-yl)phenyl)-2-(2-(dimethylamino)ethyl)-2,4-dihydro-3H-1,2,4-triazol-3-one] | 0.25 to 1 (≈ 0.336 to 1.34 µM) | 0.01 to 0.1 (≈ 0.0134 to 0.134 µM) | – | –
OC(CC(F)(F)F)c1ccc(N2CCN(c3ccc(-c4ccc(C(F)(F)[C@](O)(Cn5cnnn5)c5cccc(F)c5)nc4)cc3)CC2)cn1 (single isomer, unassigned; (-)) [119(−)] | > 8 | 0.1 to 1 (≈ 0.146 to 1.46 µM) | – | –
CCC(C(C)O)n1ccc(N2CCN(c3ccc(-c4ccc(C(F)(F)[C@](O)(Cn5cnnn5)c5ccc(F)cc5F)nc4)cc3)CC2)cc1=O (stereo partly drawn) [Example 37, 4-(4-(4-(6-((R)-2-(2,4-difluorophenyl)-1,1-difluoro-2-hydroxy-3-(1H-tetrazol-1-yl)propyl)pyridin-3-yl)phenyl)piperazin-1-yl)-1-(2-hydroxypentan-3-yl) pyridin-2(1H)-one] | > 8 | 0.01 to 0.1 (≈ 0.0144 to 0.144 µM) | – | –
CC[C@@H]([C@H](C)O)n1ncn(-c2ccc(N3CCN(c4ccc(-c5ccc(C(F)(F)[C@](O)(Cn6cnnn6)c6ccccc6F)nc5)cc4)CC3)cn2)c1=O [102(−), 4-(5-(4-(4-(6-((R)-1,1-difluoro-2-(2-fluorophenyl)-2-hydroxy-3-(1H-tetrazol-1-yl)propyl)pyridin-3-yl)phenyl)piperazin-1-yl)pyridin-2-yl)-2-((2S,3S)-2-hydroxypentan-3-yl)-2,4-dihydro-3H-1,2,4-triazol-3-one] | – | – | >8 | 0.10 to 1.0
OC(CC(F)(F)F)c1ccc(N2CCN(c3ccc(-c4ccc(C(F)(F)[C@](O)(Cn5cncn5)c5ccc(F)cc5F)nc4)cc3)CC2)cn1 (single isomer, unassigned; (-)) [120(−)] | – | 0.01 to 0.1 (≈ 0.0143 to 0.143 µM) | 0.25 to 1.0 | –
CCC(C(C)O)n1ccn(-c2ccc(N3CCN(c4ccc(-c5ccc(C(F)(F)[C@](O)(Cn6cnnn6)c6ccc(F)cc6F)nc5)cc4)CC3)cc2)c1=O (stereo partly drawn) [Example 97, 1-(4-(4-(4-(6-((R)-2-(2,4-difluorophenyl)-1,1-difluoro-2-hydroxy-3-(1H-tetrazol-1-yl)propyl)pyridin-3-yl)phenyl)piperazin-1-yl)phenyl)-3-(2-hydroxypentan-3-yl)-1,3-dihydro-2H-imidazol-2-one] | 0.25 to 1 (≈ 0.33 to 1.32 µM) | 0.0078 to 0.01 (≈ 0.0103 to 0.0132 µM) | – | –
CC[C@@H]([C@H](C)O)n1cnc(-c2ccc(N3CCN(c4ccc(-c5ccc(C(F)(F)[C@](O)(Cn6cnnn6)c6ccc(F)cc6F)nc5)cc4)CC3)cc2)n1 [Example 92, (2S,3S)-3-(3-(4-(4-(4-(6-(2-(2,4-difluorophenyl)-1,1-difluoro-2-hydroxy-3-(1H-tetrazol-1-yl)propyl)pyridin-3-yl)phenyl)piperazin-1-yl)phenyl)-1H-1,2,4-triazol-1-yl) pentan-2-ol] | 0.25 to 1 (≈ 0.337 to 1.35 µM) | 0.0078 to 0.01 (≈ 0.0105 to 0.0135 µM) | – | –
CCC(c1nc2cc(N3CCN(c4ccc(-c5ccc(C(F)(F)[C@](O)(Cn6cnnn6)c6ccc(F)cc6F)nc5)cc4)CC3)ccc2[nH]1)C(C)O (stereo partly drawn) [Example 71, 3-(5-(4-(4-(6-((R)-2-(2,4-difluorophenyl)-1,1-difluoro-2-hydroxy-3-(1H-tetrazol-1-yl)propyl)pyridin-3-yl)phenyl)piperazin-1-yl)-1H-benzo [d]imidazol-2-yl)pentan-2-ol] | 0.25 to 1 (≈ 0.349 to 1.4 µM) | 0.0078 to 0.01 (≈ 0.0109 to 0.014 µM) | – | –
OC(CC(F)(F)F)c1ccc(N2CCN(c3ccc(-c4ccc(C(F)(F)[C@](O)(Cn5cnnn5)c5ccc(F)cc5)nc4)cc3)CC2)cn1 (single isomer, unassigned; (+)) [121(+)] | – | – | 0.25 to 1.0 | ≤0.0078 to 0.010
O=Cc1ccc(N2CCN(c3ccc(-c4ccc(C(F)(F)[C@](O)(Cn5cnnn5)c5ccc(F)cc5F)nc4)cc3)CC2)cn1 [Example 32, (R)-5-(4-(4-(6-(2-(2,4-difluorophenyl)-1,1-difluoro-2-hydroxy-3-(1H-tetrazol-1-yl)propyl)pyridin-3-yl)phenyl)piperazin-1-yl) picolinaldehyde] | 0.25 to 1 (≈ 0.404 to 1.62 µM) | 0.1 to 1 (≈ 0.162 to 1.62 µM) | – | –
CC[C@@H]([C@H](C)O)n1ncn(-c2ccc(N3CCN(c4ccc(-c5ccc(C(F)(F)C(O)(Cn6cncn6)c6ccc(F)cc6F)nc5)cc4)CC3)cc2)c1=O (single isomer, unassigned; (+)) [123(+)] | – | – | 0.062 to 0.25 | 0.010 to 0.10

Continued, values first:

MIC (A. fumigatus) [µg/mL] | MIC (C. albicans (ATCC 90028)) [µg/mL] | Aspergillus fumigatus MIC (A. fumigatus) [µg/mL] | Candida albicans MIC (C. albicans (ATCC 90028)) [µg/mL] | SMILES
0.25 to 1 (≈ 0.354 to 1.42 µM) | 0.0078 to 0.01 (≈ 0.0111 to 0.0142 µM) | – | – | OC(c1ccc(N2CCN(c3ccc(-c4ccc(C(F)(F)[C@](O)(Cn5cnnn5)c5ccc(F)cc5F)nc4)cc3)CC2)cc1F)C(F)(F)F (stereo partly drawn) [Example 5, (2R)-2-(2,4-difluorophenyl)-1,1-difluoro-1-(5-(4-(4-(3-fluoro-4-(2,2,2-trifluoro-1-hydroxyethyl)phenyl)piperazin-1-yl)phenyl)pyridin-2-yl)-3-(1H-tetrazol-1-yl) propan-2-ol]
0.25 to 1 (≈ 0.337 to 1.35 µM) | 0.0078 to 0.01 (≈ 0.0105 to 0.0135 µM) | – | – | CC[C@@H]([C@H](C)O)n1cc(-c2ccc(N3CCN(c4ccc(-c5ccc(C(F)(F)[C@](O)(Cn6cnnn6)c6ccc(F)cc6F)nc5)cc4)CC3)cc2)nn1 [Example 95, (2S,3S)-3-(4-(4-(4-(4-(6-((R)-2-(2,4-difluorophenyl)-1,1-difluoro-2-hydroxy-3-(1H-tetrazol-1-yl)propyl)pyridin-3-yl)phenyl)piperazin-1-yl)phenyl)-1H-1,2,3-triazol-1-yl) pentan-2-ol]
0.25 to 1 (≈ 0.331 to 1.33 µM) | 0.0078 to 0.01 (≈ 0.0103 to 0.0133 µM) | – | – | OC(c1cn(-c2ccc(N3CCN(c4ccc(-c5ccc(C(F)(F)[C@](O)(Cn6cnnn6)c6ccc(F)cc6F)nc5)cc4)CC3)cc2)nn1)C(F)(F)F (stereo partly drawn) [Example 94, (2R)-2-(2,4-difluorophenyl)-1,1-difluoro-3-(1H-tetrazol-1-yl)-1-(5-(4-(4-(4-(4-(2,2,2-trifluoro-1-hydroxyethyl)-1H-1,2,3-triazol-1-yl)phenyl)piperazin-1-yl)phenyl)pyridin-2-yl) propan-2-ol]
0.25 to 1 (≈ 0.364 to 1.46 µM) | 0.01 to 0.1 (≈ 0.0146 to 0.146 µM) | – | – | NC(c1ccc(N2CCN(c3ccc(-c4ccc(C(F)(F)[C@](O)(Cn5cnnn5)c5ccc(F)cc5F)nc4)cc3)CC2)cc1)C(F)(F)F (stereo partly drawn) [Example 4, (2R)-1-(5-(4-(4-(4-(1-amino-2,2,2-trifluoroethyl)phenyl)piperazin-1-yl)phenyl)pyridin-2-yl)-2-(2,4-difluorophenyl)-1,1-difluoro-3-(1H-tetrazol-1-yl) propan-2-ol]
– | – | >8 | >8 | OC(c1cn(-c2ccc(N3CCN(c4ccc(-c5ccc(C(F)(F)C(O)(Cn6cnnn6)c6ccccc6F)nc5)cc4)CC3)cc2)nn1)C(F)(F)F (single isomer, unassigned; (-)) [108(−)]
– | – | >8 | 0.10 to 1.0 | OC(CC(F)(F)F)c1ccc(N2CCN(c3ccc(-c4ccc(C(F)(F)[C@](O)(Cn5cnnn5)c5ccc(F)cc5)nc4)cc3)CC2)cn1 (single isomer, unassigned; (-)) [121(−)]
0.25 to 1 (≈ 0.332 to 1.33 µM) | 0.0078 to 0.01 (≈ 0.0103 to 0.0133 µM) | – | – | O=c1n(CC(F)(F)F)ccn1-c1ccc(N2CCN(c3ccc(-c4ccc(C(F)(F)[C@](O)(Cn5cnnn5)c5ccc(F)cc5F)nc4)cc3)CC2)cc1 [Example 96]
